# Earlier results in patent publication US8728489B2, “Immunotherapy for chronic hepatitis C virus infection” (priority 2008, dated 2014).
# Columns and labels:
# [1] = in vivo
compound,measurement,setting,value
"NC(=O)c1ncn([C@@H]2O[C@H](CO)[C@@H](O)[C@H]2O)n1 [Ribavirin, 1-(beta)-D-ribofuranosyl-1H-1,2,4-triazole-3-carboxamide]",patients with hemolytic anemia,[1],20-30%
same,solubility in anhydrous alcohol,,slightly soluble
same,solubility in water,,freely soluble
